In US5354747A, “2-, 3-, 4-, 5-, 6-, 7-, 8-, 9- and/or 10-substituted dibenzoxazepine and dibenzthiazepine compounds, pharmaceutical compositions and methods of use” (G. D. Searle & Co., priority 1993, dated 1994):
Structures can show the parent of a compound that is named as a salt.

Key:
[1] = tested on: prostaglandin E2 -induced contractions of segments of guinea pig ileum; assay: Prostaglandin (PGE) Antagonism Assay; format: cell-based; details: dose ratio of prostaglandin E2 EC50 doses with/without test compound, initial concentration 3 micromolar
Experimental: In order to determine the effectiveness of several of the compounds of the present invention ("test compounds") as prostaglandin E2 antagonists,a prostaglandin antagonism assay was conducted, as described below, to determine the ability of these compounds to inhibit prostaglandin E2 -induced contractions of segments of guinea pig ileum. […] Male albino guinea pigs weighing 200 to 500 grams were sacrificed by cervical dislocation. The ilea were then quickly removed from the guinea pigs and placed in a modified Tyrode solution, a solution which is known to those skilled in the art, containing one-half of the usual amount of magnesium ions. Segments of ileum about 2 cm long were then cut and mounted in a 10-mL tissue bath containing the modified Tyrode solution. The solution was maintained at 37° C. and aerated with a gaseous mixture of 95% oxygen and 5% carbon dioxide. Data for a control prostaglandin E2 dose response curve plotting concentration of prostaglandin E2 versus the intensity of contractions, detected isotonically, was then obtained by experimentally adjusting the dose of the prostaglandin E2 being injected into the tissue bath, in a manner known by those of skill in the art. Solutions or suspensions containing an initial concentration (3 micromolar) of a test compound in modified Tyrode solution ("test solutions/suspensions") were then separately substituted for the control bath solution. Each test solution/suspension was then kept in constant contact with the ileum tissue, except for brief periods to drain the bath in preparation for rinsing with fresh test solution/suspension. A second prostaglandin E2 dose response curve was then generated for prostaglandin E2 in the presence of a test compound. A dose ratio (DR) of EC50 doses was then calculated from the results of each test in a manner known by those of skill in the art. A control dose response curve (DRC) is produced in isolated segments of guinea pig ileum mounted in an automated apparatus with six concentrations of prostaglandin E2. A solution or suspension of test compound is substituted for the control bathing solution and is incubated for thirty minutes. An additional prostaglandin E2 dose response curve is produced in the presence of the test compound. A dose ratio is calculated from the EC50 values obtained from duplicate replications on each concentration of the test compound. […] The results of this prostaglandin antagonism assay are presented in Table 2 below in terms of their dose ratio. The compounds of the present invention which were tested in this assay, and for which results are presented in Table 2, correspond to the particular examples specified in Table 2.

[2] = tested on: Charles River male albino mice; assay: Writhing Assay (PBQ-induced writhing, analgesic activity); format: in vivo; details: Intragastric; for responders at 30 mg/kg / ED50: Mus musculus, po; for responders at 30 mg/kg: 25 min, read-out: number of mice out of nine or ten in which a test compound produced analgesia (converted); for ED50: PBQ writhing, mice, maximum likelihood function, read-out: calculated ED50 value (dose which produced analgesia in 50% of the mice)
Text: The Writhing Assay is one of the most widely-used experimental procedures for measuring the analgesic activity of different narcotic and nonnarcotic analgesic agents, and involves the continuous, chemically-induced pain of visceral origin to an animal, such as a mouse or rat. [Gyires et al., Arch. int. Pharmacodyn, 267, 131-140 (1984); […] al., Fed. Proc., 15, 494 (1956); Koster et al., Fed. Proc., 18, 412 (1959); and Witken et al., J. Pharmacol. exp. Ther., 133, 400-408 (1961).] Chemicals which may be used to induce this pain include phenylbenzoquinone (PBQ) and acetic acid. As a result of the chemical irritation to the animal, a characteristic stretching and writhing of the animal (dorsiflexion of the animal's back, extension of its hindlimbs and the strong contraction of its abdominal musculature) will generally occur. […] Drugs which reduce the number of writhes of the animal appear to restore the normal nociceptive threshold of the animal. Charles River male albino mice, weighing 20 to 30 grams were used in this assay. Twenty-five minutes after intragastric administration to nine or ten mice of 30 mg per kilogram of body weight of a compound of the present invention ("test compound"), […] of body weight of a 0.025% w/v solution of PBQ was injected intraperitoneally into each mouse. Ten mice which were given saline in place of a test compound of the invention were used as a control group. Five minutes later, each mouse was individually placed into a glass beaker for observation, and the number of writhes occurring during the following ten-minute period was counted. A test compound was considered to have produced analgesia in a mouse if, in accordance with the conditions set forth above, and under the test criteria employed for this assay, after the administration of 30 mg per kilogram of body weight of a compound of the present invention to the mouse, the number of writhes elicited by a mouse injected with PBQ was equal to, or less than, one-half the median number of writhes recorded for the saline-treated control group of mice that day, as described by Taber in "Predictive Value of Analgesic Assays in Mice and Rats," Advances in Biochemical Psychopharmacology, 8, 191 (1974). […] If this initial screening dose of the test compound produced analgesia in seven of nine or ten mice, then the effect of additional doses of the test compound on the writhing response was evaluated, and then the ED50 value (that dose of a compound which produced analgesia in 50% of the mice to which the compound was administered) was generally calculated. A maximum likelihood function was used to determine the ED50 value. (The slopes of the dose-response curves for all test compounds analyzed were compared as described by Tallarida and Murray, Manual of Pharmacologic Calculations, Page 11 (Springer Verlag, New York, 1981)). The results for the particular compounds of the present invention analyzed in this assay, and discussed in the examples identified below which correspond thereto, are presented in Table 1 hereinbelow. The compounds of the present invention which were tested in this assay, and for which results are presented in Table 1, correspond to the particular examples specified in Table 1. The fractions indicate the number of mice out of nine or ten in which a test compound produced analgesia, and the whole numbers are the calculated ED50 values.

[3] = 30 mg per kilogram of body weight 25 min before PBQ i.p., writhes equal to or less than one-half the control median

Row | Structure (SMILES) | Dose Ratio [1] | responders at 30 mg/kg [2, 3] | number of mice out of nine or ten in which a test compound produced analgesia [2, 3] | ED50 [2]
1 | O=C(N1CCN2CCCCC2C1)N1Cc2ccccc2Oc2ccc(Cl)cc21 (stereo not drawn) [Example 5, 8-chloro-10,11-dihydro-10-[(octahydro-2H-pyrido[1,2,-a]pyrazin-2-yl)carbonyl]dibenz[b,f][1,4]oxazepine hydrochloride] | 2.4 | 40% | – | –
2 | Cl.O=C(c1ccncc1)N1CCN(C(=O)N2Cc3ccccc3Oc3ccc(Cl)cc32)CC1 [Example 29, 1-[(8-chlorodibenz[b,f][1,4]oxazepin-10(11H)-yl)carbonyl]-4-(4-pyridinylcarbonyl)piperazine, monohydrochloride] | 2.2 | 50% | – | –
3 | CCN(CC)CCC1=CCN(C(=O)N2Cc3ccccc3Oc3ccc(Cl)cc32)CC1.Cl [Example 67, 8-chloro-10-[[4-[2-(diethylamino)ethyl]-3,6-dihydro-1(2H)-pyridinyl]carbonyl]-10,11-dihydrobenz[b,f][1,4]oxazepine, hydrochloride] | 10.2 | – | 6/10 | –
4 | O=C(C1CCN(C(=O)N2Cc3ccccc3Oc3ccc(Cl)cc32)CC1)N(CCO)CCO [Example 3, 1-[(8-chlorodibenz[b,f][1,4]oxazepin-10(11H)yl)carbonyl]-N,N-bis(2-hydroxyethyl)-4-piperidinecarboxamide] | 1.5 | 20% | – | –
5 | CCCCN1CCN(C(=O)N2Cc3ccccc3Oc3ccc(Cl)cc32)CC1.Cl [Example 9, 10-[(4-butyl-1-piperazinyl)carbonyl]-8-chloro-10,11-dihydrodibenz[b,f][1,4]oxazepine, monohydrochloride] | 1.4 | – | – | 9.7 mg/kg
6 | Cl.O=C(N1CCCNCC1)N1Cc2ccccc2Oc2ccc(Cl)cc21 [Example 61, 8-chloro-10-[(hexahydro-1H-1,4-diazepin-1-yl)carbonyl]-10,11-dihydrodibenz[b,f][1,4]oxazepine, hydrochloride] | 4.8 | 60% | – | –
7 | CCCN1CCN(C(=O)N2Cc3ccccc3Oc3ccc(Cl)cc32)CC1.Cl [Example 17, 8-chloro-10,11-dihydro-10-[(4-propyl-1-piperazinyl)carbonyl]dibenz[b,f][1,4]oxazepine, hydrochloride] | 3.1 | – | – | 5.1 mg/kg
8 | O=C(CCc1cccnc1)N1CCN(C(=O)N2Cc3ccccc3Oc3ccc(Cl)cc32)CC1 [Example 33, 1-[(8-chlorodibenz[b,f][1,4]oxazepin-10(11H)-yl)carbonyl]-4-[(1-oxo-3-(3-pyridinyl)propyl]piperazine, monohydrochloride] | 6.7 | 80% | – | –
9 | Cl.O=C(N1CCC(N2CCCCC2)CC1)N1Cc2ccccc2Oc2ccc(Cl)cc21 [Example 13, 10-([1,4'-bipiperidin]-1'-ylcarbonyl)-8-chloro-10,11-dihydrodibenz[b,f][1,4]oxazepine, hydrochloride] | 1.6 | 90% | – | –
10 | CCCN1CCCN(C(=O)N2Cc3ccccc3Oc3ccc(Cl)cc32)CC1 [Example 24, monohydrochloride] | 11.9 | – | – | 14.7 mg/kg
11 | Cl.O=C(N1CCN(c2ccccc2)CC1)N1Cc2ccccc2Oc2ccc(Cl)cc21 [Example 43, 8-chloro-10,11-dihydro-10-[(4-phenyl-1-piperazinyl)carbonyl]dibenz[b,f][1,4]oxazepine, hydrochloride] | 0.8 | 10% | – | –
12 | Cl.O=C(N1CCN(CCc2ccccc2)CC1)N1Cc2ccccc2Oc2ccc(Cl)cc21 [Example 40, 8-Chloro-10,11-dihydro-10-[[4-(2-phenylethyl)-1-piperazinyl]carbonyl]dibenz[b,f][1,4]oxazepine, monohydrochloride] | 4.1 | 20% | – | –
